Experimental findings from ChEMBL document CHEMBL5653615 (J Biol Chem, 2013) are described below.

Usually inhibition stands for the relative decrease from the control value, in per cent.

In test [1] the target is T1, Muscle, skeletal receptor tyrosine-protein kinase (Homo sapiens) (UniProt O15146).
T1 sequence (whole entry): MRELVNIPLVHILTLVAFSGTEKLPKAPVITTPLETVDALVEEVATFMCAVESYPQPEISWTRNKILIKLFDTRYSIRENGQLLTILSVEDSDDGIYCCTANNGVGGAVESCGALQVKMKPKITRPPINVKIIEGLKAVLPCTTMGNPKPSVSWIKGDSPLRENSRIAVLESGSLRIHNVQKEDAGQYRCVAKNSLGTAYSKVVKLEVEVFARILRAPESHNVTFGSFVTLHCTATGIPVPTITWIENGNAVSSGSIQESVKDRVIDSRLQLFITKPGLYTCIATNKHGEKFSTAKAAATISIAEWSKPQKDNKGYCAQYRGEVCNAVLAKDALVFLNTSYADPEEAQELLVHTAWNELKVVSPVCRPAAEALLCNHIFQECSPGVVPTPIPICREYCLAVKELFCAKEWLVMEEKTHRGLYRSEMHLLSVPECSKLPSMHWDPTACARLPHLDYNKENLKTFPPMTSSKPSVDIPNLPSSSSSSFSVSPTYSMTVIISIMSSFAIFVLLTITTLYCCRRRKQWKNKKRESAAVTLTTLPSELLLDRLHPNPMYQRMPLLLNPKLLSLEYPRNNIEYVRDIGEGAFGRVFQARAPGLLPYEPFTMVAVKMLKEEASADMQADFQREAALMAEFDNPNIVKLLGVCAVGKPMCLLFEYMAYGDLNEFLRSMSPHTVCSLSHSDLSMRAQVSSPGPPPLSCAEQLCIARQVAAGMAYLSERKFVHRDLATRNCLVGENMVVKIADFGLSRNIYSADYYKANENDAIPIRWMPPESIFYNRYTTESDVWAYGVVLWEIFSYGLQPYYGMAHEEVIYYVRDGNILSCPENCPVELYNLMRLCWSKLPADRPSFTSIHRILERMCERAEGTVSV
Description: Inhibition of human MUSK at 500 nM by HotSpot assay relative to control.

Test [2] addresses Dual specificity protein kinase CLK2 (Homo sapiens) (UniProt P49760). The test is described as follows: Inhibition of human CLK2 at 500 nM by HotSpot assay relative to control.
Test [3] concerns the target T2, Serine/threonine-protein kinase NLK (Homo sapiens) (UniProt Q9UBE8).
T2 sequence (whole entry): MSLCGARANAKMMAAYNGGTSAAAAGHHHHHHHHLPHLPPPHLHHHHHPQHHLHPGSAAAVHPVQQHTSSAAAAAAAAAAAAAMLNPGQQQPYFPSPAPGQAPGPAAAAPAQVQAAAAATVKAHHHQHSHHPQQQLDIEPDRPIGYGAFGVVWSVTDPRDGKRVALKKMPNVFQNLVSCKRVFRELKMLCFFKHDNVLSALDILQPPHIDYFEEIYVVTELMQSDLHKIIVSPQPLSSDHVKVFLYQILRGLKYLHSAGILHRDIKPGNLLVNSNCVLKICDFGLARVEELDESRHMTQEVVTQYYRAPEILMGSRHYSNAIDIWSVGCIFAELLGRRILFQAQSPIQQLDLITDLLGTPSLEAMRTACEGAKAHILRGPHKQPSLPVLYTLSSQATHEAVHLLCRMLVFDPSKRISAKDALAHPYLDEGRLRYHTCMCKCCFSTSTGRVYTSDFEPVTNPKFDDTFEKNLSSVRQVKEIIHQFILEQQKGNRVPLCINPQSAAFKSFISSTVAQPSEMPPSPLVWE
The test is described as follows: Inhibition of human NLK at 500 nM by HotSpot assay relative to control.

The target of test [4] is T3, Mitogen-activated protein kinase kinase kinase 3 (Homo sapiens) (UniProt Q99759).
T3 sequence (whole entry): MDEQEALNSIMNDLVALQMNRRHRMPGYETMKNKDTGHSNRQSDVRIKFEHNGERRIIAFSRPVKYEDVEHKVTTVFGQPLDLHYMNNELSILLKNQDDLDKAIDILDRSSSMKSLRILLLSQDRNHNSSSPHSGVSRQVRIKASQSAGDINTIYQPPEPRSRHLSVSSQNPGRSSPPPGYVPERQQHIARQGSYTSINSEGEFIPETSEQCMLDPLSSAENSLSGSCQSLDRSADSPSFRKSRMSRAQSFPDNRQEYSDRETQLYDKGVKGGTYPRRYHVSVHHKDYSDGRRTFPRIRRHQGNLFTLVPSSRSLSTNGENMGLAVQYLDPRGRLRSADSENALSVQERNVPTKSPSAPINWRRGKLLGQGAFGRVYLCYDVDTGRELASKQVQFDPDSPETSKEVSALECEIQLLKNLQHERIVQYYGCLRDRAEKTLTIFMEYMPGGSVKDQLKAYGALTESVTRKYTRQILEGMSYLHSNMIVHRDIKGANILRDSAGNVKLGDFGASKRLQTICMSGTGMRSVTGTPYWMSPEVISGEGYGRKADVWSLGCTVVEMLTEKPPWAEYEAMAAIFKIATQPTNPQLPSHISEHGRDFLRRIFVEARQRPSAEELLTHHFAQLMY
The test is described as follows: Inhibition of human MEKK3 at 500 nM by HotSpot assay relative to control.

The target of test [5] is Mitogen-activated protein kinase kinase kinase 10 (Homo sapiens) (UniProt Q02779). The test is described as follows: Inhibition of human MAP3K10 at 500 nM by HotSpot assay relative to control.
Sequence of Mitogen-activated protein kinase kinase kinase 10 (Homo sapiens) (Q02779 whole entry, looked up): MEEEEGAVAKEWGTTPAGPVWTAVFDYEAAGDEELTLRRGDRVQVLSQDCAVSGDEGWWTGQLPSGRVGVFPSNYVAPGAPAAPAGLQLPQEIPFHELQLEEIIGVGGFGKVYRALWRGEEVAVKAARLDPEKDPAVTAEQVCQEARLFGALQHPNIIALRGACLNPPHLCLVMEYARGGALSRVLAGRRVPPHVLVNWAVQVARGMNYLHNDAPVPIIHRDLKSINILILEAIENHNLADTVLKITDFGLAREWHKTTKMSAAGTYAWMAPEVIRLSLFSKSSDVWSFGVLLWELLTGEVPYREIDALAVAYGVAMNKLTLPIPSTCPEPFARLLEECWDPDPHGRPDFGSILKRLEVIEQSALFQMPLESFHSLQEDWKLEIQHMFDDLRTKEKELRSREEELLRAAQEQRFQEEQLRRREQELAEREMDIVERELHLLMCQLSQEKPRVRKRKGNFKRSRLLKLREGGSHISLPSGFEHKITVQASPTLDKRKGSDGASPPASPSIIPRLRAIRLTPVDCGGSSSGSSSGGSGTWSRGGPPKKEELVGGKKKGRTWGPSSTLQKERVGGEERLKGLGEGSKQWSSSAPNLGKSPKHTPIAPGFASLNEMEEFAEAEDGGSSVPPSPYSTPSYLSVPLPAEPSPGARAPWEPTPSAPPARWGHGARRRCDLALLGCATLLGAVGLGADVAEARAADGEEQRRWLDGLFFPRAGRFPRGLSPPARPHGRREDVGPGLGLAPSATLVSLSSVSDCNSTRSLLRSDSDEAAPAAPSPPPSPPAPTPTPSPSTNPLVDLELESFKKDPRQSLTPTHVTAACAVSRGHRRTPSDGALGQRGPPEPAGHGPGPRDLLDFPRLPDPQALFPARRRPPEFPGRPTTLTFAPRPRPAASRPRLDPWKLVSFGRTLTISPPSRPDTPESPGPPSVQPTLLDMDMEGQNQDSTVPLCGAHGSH
Test [6] addresses Death-associated protein kinase 1 (Homo sapiens) (UniProt P53355). The test is described as follows: Inhibition of human DAPK1 at 500 nM by HotSpot assay relative to control.
In test [7] the target is T4, Calcium/calmodulin-dependent protein kinase type IV (Homo sapiens) (UniProt Q16566).
T4 sequence (whole entry): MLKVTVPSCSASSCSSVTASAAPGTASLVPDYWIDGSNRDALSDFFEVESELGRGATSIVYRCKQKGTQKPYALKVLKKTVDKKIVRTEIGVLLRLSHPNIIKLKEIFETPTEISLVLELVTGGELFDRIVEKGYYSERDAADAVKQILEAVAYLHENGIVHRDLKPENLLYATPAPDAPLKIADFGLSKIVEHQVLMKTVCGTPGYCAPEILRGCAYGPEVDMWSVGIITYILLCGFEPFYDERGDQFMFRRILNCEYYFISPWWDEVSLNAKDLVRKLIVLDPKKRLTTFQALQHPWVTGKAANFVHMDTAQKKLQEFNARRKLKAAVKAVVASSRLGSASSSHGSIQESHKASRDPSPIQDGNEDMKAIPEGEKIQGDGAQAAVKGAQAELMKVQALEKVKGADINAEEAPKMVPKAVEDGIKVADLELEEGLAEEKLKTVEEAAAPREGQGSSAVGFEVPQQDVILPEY
The test is described as follows: Inhibition of human CAMK4 at 500 nM by HotSpot assay relative to control.

The target in test [8] is Serine/threonine-protein kinase PLK3 (Homo sapiens) (UniProt Q9H4B4). Description: Inhibition of human PLK3 at 500 nM by HotSpot assay relative to control.
Sequence of Serine/threonine-protein kinase PLK3 (Homo sapiens) (Q9H4B4 whole entry, looked up): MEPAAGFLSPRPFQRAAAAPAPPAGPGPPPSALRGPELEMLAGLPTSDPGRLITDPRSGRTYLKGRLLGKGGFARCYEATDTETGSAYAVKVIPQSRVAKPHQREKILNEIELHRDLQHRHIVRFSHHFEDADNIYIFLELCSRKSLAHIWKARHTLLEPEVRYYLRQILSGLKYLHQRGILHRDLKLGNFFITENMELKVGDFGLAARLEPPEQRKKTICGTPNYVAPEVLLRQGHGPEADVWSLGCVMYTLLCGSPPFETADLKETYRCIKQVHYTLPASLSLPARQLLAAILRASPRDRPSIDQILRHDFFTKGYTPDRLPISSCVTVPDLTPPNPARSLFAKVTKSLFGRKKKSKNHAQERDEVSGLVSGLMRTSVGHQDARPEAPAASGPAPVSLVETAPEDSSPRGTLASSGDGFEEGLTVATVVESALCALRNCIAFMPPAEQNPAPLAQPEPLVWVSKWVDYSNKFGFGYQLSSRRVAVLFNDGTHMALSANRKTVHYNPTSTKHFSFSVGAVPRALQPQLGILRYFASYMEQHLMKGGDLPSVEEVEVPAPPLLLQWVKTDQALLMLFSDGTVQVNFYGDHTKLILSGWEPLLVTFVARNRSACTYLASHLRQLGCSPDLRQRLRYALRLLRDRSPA
In test [9] the target is Death-associated protein kinase 2 (Homo sapiens) (UniProt Q9UIK4). The test is described as follows: Inhibition of human DAPK2 at 500 nM by HotSpot assay relative to control.
Sequence of Death-associated protein kinase 2 (Homo sapiens) (Q9UIK4 whole entry, looked up): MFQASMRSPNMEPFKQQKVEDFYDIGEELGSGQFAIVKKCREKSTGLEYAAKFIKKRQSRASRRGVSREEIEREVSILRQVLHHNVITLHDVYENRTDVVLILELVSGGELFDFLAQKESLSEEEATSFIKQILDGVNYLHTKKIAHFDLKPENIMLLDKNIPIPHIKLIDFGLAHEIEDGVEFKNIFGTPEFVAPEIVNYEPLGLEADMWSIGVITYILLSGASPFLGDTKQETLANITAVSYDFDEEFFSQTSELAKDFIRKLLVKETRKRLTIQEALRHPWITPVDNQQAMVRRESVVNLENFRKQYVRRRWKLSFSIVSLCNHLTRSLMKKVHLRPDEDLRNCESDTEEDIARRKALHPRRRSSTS

Sequence of Dual specificity protein kinase CLK2 (Homo sapiens) (P49760 whole entry, looked up): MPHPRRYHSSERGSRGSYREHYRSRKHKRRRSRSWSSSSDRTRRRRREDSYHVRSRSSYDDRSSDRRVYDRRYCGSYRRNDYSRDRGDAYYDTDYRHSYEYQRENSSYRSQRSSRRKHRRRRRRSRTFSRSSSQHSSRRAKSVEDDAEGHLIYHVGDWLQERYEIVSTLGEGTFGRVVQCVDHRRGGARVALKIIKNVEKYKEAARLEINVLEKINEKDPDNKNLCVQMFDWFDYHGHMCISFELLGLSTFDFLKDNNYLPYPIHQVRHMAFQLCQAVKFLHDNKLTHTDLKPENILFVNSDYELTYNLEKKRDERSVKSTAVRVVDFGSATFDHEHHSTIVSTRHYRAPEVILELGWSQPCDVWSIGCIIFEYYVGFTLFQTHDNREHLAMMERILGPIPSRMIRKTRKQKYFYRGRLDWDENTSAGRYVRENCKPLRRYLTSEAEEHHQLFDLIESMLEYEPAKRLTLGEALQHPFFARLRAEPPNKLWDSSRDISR
Sequence of Death-associated protein kinase 1 (Homo sapiens) (P53355 whole entry, looked up): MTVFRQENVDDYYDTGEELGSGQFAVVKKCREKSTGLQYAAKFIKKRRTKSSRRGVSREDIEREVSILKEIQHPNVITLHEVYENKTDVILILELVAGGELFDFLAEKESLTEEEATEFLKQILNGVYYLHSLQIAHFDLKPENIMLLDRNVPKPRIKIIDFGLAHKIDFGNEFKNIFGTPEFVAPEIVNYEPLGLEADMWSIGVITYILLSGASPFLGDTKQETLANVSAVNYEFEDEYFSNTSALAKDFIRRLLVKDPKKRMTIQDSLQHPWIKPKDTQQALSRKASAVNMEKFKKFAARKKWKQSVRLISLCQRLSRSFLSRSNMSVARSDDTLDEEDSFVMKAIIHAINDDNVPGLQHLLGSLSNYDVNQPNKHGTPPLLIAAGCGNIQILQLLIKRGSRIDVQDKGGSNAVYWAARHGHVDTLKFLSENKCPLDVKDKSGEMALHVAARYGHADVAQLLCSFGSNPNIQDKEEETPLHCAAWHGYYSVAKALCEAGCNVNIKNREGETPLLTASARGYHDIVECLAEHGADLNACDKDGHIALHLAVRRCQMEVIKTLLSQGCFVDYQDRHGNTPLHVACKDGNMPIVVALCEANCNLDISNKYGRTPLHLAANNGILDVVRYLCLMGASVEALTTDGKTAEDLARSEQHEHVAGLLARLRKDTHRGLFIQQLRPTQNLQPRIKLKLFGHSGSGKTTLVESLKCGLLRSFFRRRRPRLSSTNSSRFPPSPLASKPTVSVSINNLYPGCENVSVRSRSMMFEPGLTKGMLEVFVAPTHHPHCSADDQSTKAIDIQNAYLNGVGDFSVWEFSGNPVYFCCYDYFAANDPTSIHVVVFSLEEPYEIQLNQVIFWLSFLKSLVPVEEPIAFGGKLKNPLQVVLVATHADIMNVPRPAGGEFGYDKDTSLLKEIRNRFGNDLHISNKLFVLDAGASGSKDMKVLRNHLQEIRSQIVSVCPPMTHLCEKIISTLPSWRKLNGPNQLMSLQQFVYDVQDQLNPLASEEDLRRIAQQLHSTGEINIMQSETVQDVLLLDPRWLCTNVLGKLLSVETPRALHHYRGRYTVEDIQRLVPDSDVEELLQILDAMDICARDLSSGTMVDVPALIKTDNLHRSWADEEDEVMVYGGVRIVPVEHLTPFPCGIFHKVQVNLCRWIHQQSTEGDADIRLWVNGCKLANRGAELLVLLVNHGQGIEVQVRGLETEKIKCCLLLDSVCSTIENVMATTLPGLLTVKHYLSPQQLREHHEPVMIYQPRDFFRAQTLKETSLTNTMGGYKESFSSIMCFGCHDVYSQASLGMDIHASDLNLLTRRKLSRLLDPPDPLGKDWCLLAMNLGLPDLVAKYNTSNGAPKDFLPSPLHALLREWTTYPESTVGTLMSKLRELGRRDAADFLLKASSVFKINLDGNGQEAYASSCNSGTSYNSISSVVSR

As to `Nc1n[nH]c2nnc(-c3c(-c4ccccc4)nn4ccccc34)cc12`, the inhibition in test [1] was 3.22%; in test [2], -1.46%; in [3], -2.21%; in test [4], -9.53%; in test [5], 9.29%; in test [6] it was 4.15%. For the same compound, the inhibition was 5.76% in test [7], -0.08% in [8] and -2.75% in test [9].
As to `Oc1n[nH]c2nnc(-c3c(-c4ccccc4)nn4ccccc34)cc12`, the inhibition is 3.28% in test [1]; 2.49% in [2]; -0.83% in test [3]; -4.26% in test [4]; 5.25% in test [5]; 6.45% in [6]. Also, the inhibition in [7] is 0.79%; in test [8] it was 1.17%; in test [9], -0.84%.
